In patent EP4782453A1 (Beyang Therapeutics Co., Ltd., priority 2023, dated 2025):
Where two headings read alike, the source gives them in different places.

Legend:
Menin-MLL = target: T1, Menin-MLL (Homo sapiens, UniProt O00255); assay: Inhibitory activity against Menin-MLL binding (fluorescence polarization); conditions: 150 nM His-Menin, 15 nM FITC-MLL, 25°C for 60 min
T1 construct: His-Menin (M1-L615 end); purchased BIORTUS BP9210
T1 sequence (O00255 1-615 isoform O00255-1): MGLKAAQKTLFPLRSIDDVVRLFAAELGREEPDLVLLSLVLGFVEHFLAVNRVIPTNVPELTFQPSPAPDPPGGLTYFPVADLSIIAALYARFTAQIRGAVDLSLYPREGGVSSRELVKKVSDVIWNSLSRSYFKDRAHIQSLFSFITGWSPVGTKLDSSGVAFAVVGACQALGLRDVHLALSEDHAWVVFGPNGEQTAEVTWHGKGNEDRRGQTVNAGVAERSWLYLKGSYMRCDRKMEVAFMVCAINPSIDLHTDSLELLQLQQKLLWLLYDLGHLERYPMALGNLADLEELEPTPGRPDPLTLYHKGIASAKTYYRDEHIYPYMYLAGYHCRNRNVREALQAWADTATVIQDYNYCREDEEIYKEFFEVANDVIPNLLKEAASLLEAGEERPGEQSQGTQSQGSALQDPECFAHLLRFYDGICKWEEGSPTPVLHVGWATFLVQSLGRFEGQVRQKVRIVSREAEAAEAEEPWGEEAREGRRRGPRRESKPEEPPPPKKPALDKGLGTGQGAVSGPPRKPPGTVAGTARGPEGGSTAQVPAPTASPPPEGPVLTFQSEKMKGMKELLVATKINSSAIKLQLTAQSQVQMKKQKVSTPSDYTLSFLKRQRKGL
In short: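 His-Menin (M1-L615, 150 nM) preincubated with compound 15 min at 25 °C in HEPES pH 7.5, 50 mM NaCl, 1 mM DTT, 0.01% BSA, then 15 nM FITC-MLL4-43 peptide added for 60 min at 25 °C. Fluorescence polarization read; IC50 from 4-parameter logistic fit, duplicates.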

[1] = tested on: MOLM-13 (carrying MLL-AF9); assay: Inhibition of proliferation of human tumor cells (Alamar Blue, 7 days), MOLM-13; assay type: cell-based; conditions: Homo sapiens, MOLM-13 cells (carrying MLL-AF9), method calls the value GI50
Description: Experimental Example 2: Evaluation of Inhibitory Activity of Compounds Against Proliferation of Human Tumor Cells
• Human acute lymphoblastic leukemia cells MV-4-11, purchased from American Type Culture Collection, Catalog Number: CRL-9591; • Human acute myeloid leukemia cells MOLM-13, purchased from COBIOER BIOSCIENCES CO., LTD, Catalog Number: CBP60678; • Human acute myeloid leukemia cells KG-1a, purchased from American Type Culture Collection, Catalog Number: CCL-246.1; • Inverted Microscope, purchased from Olympus Tokyo; • Countess™ Automated Cell Counter, purchased from Invitrogen, Model: C10281; and • Multilabel Reader, purchased from Bio-Tek, Model: Synergy HT.
MV-4-11 cells were cultured in an IMDM medium containing 10% fetal bovine serum, KG-a cells were cultured in an IMDM medium containing 20% fetal bovine serum, or MOLM-13 cells were cultured in an RPMI-1640 medium containing 20% fetal bovine serum, each supplemented with 100 U·mL^-1 penicillin and 100 µg·mL^-1 streptomycin. These cells were cultured at 37°C with 5% CO2. The suspensions of individual cell lines were prepared in their respective media and seeded into 96-well plates at a density of 4,000 cells/well for MV-4-11 and MOLM-13 cells, or 3,000 cells/well for KG-1a cells. On the day of the experiment, a compound stock solution was diluted in a 3-fold or 4-fold gradient using DMSO. Each gradient-diluted stock solution was then further diluted 250-fold with a complete medium to prepare a series of working solutions at different concentrations. Subsequently, 100 µL of working solution (containing a 2-fold concentration series of the test compound) was added to each well, with duplicate wells set up for each concentration.
Seven days after compound addition (on Day 7), an Alamar Blue assay reagent (MCE, HY-111391 / CS-0040317) was added to measure the fluorescence intensity in each well. Wells containing the cells in the growth medium supplemented with 0.1% DMSO (Day 7) served as high-read control wells. The readouts from the wells containing the cells in the growth medium supplemented with 0.1% DMSO on the day of compound addition (Day 0) served as low-reading control well. GraphPad Prism software was used to calculate the concentration required to inhibit 50% of cell proliferation (GI50), which serves as a cell proliferation inhibition activity index.

[2] = fluorescence polarization, read-out: Menin-MLL IC50
[3] = Menin-MLL IC50, fluorescence polarization

Structure (SMILES)	IC50 (Menin-MLL; [2])	other results
Cc1nc(F)c2c(-c3ccc(F)cc3C(=O)N3CCOC[C@H]3C)cc(C3CN([C@H](CCCN4CC5CC(C4)N5C)C(C)C)C3)cn12 [Example 349]	4 nM	IC50 ([1]; 168 h): 16.5 nM
CCN1CCN(CCC[C@H](C(C)C)N2CC(c3cc(-c4ccc(F)cc4C(=O)N4CCOC[C@H]4C)c4cnn(C)c4c3)C2)CC1 [Example 359]	6 nM	IC50 ([1]; 168 h): 66 nM
Cc1nc(F)c2c(-c3ccc(F)cc3C(=O)N3CCOC[C@H]3C)cc(C3CN([C@H](CCCN4CCN(CCF)CC4)C(C)C)C3)cn12 [Example 361]	5.2 nM	IC50 ([1]; 168 h): 3.3 nM
Cc1nc(F)c2c(-c3ccc(F)cc3C(=O)N3CCOC[C@H]3C)cc(C3CN([C@H](CCCN4CCN(CC(F)F)CC4)C(C)C)C3)cn12 [Example 362]	–	IC50 (Menin-MLL; [3]): 4.6 nM; IC50 ([1]; MOLM-13, 168 h): 2.8 nM
Cc1ncc2c(-c3ccc(F)cc3C(=O)N3CCOC[C@H]3C)cc(C3CN([C@H](CCCN4CCN(CCF)CC4)C(C)C)C3)cn12 [Example 363]	6.2 nM	IC50 ([1]; 168 h): 20 nM
Cc1ncc2c(-c3ccc(F)cc3C(=O)N3CCOC[C@H]3C)cc(C3CN([C@H](CCCN4CCN(CC(F)F)CC4)C(C)C)C3)cn12 [Example 364]	5.1 nM	IC50 ([1]; 168 h): 3.9 nM
CCN(C(=O)c1cc(F)ccc1-c1cc(C2CN([C@H](CCCN3CCN(C4(C(=O)N(C)C)COC4)CC3)C(C)C)C2)cn2c(C)ncc12)C(C)C [Example 476, 3-{4-[(4R)-4-[3-(8-{2-[ethyl(isopropyl)aminoformyl]-4-fluorophenyl}-3-methylimidazo[1,5-a]pyridin-6-yl)azacyclobutan-1-yl]-5-methylhexyl]piperazin-1-yl}-N,N-dimethyloxacyclobutan-3-formamide]	1.9 nM	–
Cc1cncc2c(-c3ccc(F)cc3C(=O)N(C)C(C)C)cc(CC3CN([C@@H](CCCN4CCN(CCO)CC4)C(C)C)C3)n12 [Example 477-2, 5-fluoro-2-[6-({1-[(3S)-6-[4-(2-hydroxylethyl)piperazin-1-yl]-2-methylhexan-3-yl]azacyclobutan-3-yl}methyl)-4-methylpyrrolo[1,2-a]pyrazin-8-yl]-N-methyl-N-(isopropyl)benzamide]	27 nM	–
CCN(C(=O)c1cc(F)ccc1-c1cc(C2CN([C@H](CCCN3CC4COCC(C3)N4C(=O)OC(C)(C)C)C(C)C)C2)cn2c(C)ncc12)C(C)C [Example 478]	1.1 nM	–
CCN(C(=O)c1cc(F)ccc1-c1cc(C2CN([C@H](CCCN3CCNC4(COC4)C3)C(C)C)C2)cn2c(C)ncc12)C(C)C [Example 483, N-ethyl-5-fluoro-2-(3-methyl-6-{1-[(3R)-2-methyl-6-{2-oxa-5,8-diazaspiro[3.5]non-8-yl}hexan-3-yl]azacyclobutan-3-yl}imidazo[1,5-a]pyridin-8-yl)-N-(isopropyl)benzamide]	19 nM	–
CCN(C(=O)c1cc(F)ccc1-c1cc(C2CN([C@H](CCCN3CCN4C(=O)OCC4(CO)C3)C(C)C)C2)cn2c(C)ncc12)C(C)C (stereo partly drawn) [Example 484, 2-(6-{1-[(3R)-6-[8^a-(hydroxymethyl)-3-oxo-hexahydro-1H-[1,3]oxazolo[3,4-a]pyrazin-7-yl]-2-methylhexan-3-yl]azacyclobutan-3-yl}-3-methylimidazo[1,5-a]pyridin-8-yl)-N-ethyl-5-fluoro-N-(isopropyl)benzamide]	–	IC50 (Menin-MLL; [3]): 4.2 nM
CCN(C(=O)c1cc(F)ccc1-c1cc(C2CN(C(CCCN3C[C@H]4C[C@@H]3CO4)C3(C)COC3)C2)cn2c(C)ncc12)C(C)C (stereo partly drawn) [Example 485, N-ethyl-5-fluoro-2-(3-methyl-6-{1-[1-(3-methyloxacyclobutan-3-yl)-4-[(1R,4R)-2-oxa-5-azabicyclo[2.2.1]heptan-5-yl]butyl]azacyclobut-3-yl}imidazo[1,5-a]pyridin-8-yl)-N-(isopropyl)benzamide]	42 nM	–
CCN(C(=O)c1cc(F)ccc1-c1cc(C2CN([C@H](CCCN3CCN(CCO)C(=O)C3)C(C)C)C2)cn2c(C)ncc12)C(C)C [Example 486, N-ethyl-5-fluoro-2-(6-{1-[(3R)-6-[4-(2-hydroxyethyl)-3-oxopiperazin-1-yl]-2-methylhexan-3-yl]azacyclobutan-3-yl}-3-methylimidazo[1,5-a]pyridin-8-yl)-N-(isopropyl)benzamide]	4.2 nM	–
CCN(C(=O)c1cc(F)ccc1-c1cc(C2CN([C@H](CCCN3CCN(C4(C#N)COC4)CC3)C(C)C)C2)cn2c(C)ncc12)C(C)C [Example 487, 2-(6-{1-[(3R)-6-[4-(3-cyanooxacyclobutan-3-yl)piperazin-1-yl]-2-methylhexan-3-yl]azacyclobutan-3-yl}-3-methylimidazo[1,5-a]pyridin-8-yl)-N-ethyl-5-fluoro-N-(isopropyl)benzamide]	2.2 nM	–
CCN(C(=O)c1cc(F)ccc1-c1cc(C2CN([C@H](CCCN3CCN(C4(CC#N)COC4)CC3)C(C)C)C2)cn2c(C)ncc12)C(C)C [Example 490, 2-(6-{1-[(3R)-6-{4-[3-(cyanomethyl)oxacyclobutan-3-yl]piperazin-1-yl}-2-methylhexan-3-yl]azacyclobutan-3-yl}-3-methylimidazo[1,5-a]pyridin-8-yl)-N-ethyl-5-fluoro-N-(isopropyl)benzamide]	2.9 nM	–
CCN(C(=O)c1cc(F)ccc1-c1nc(C2CN(C(CCCN3CCN(CCO)CC3)C(C)C)C2)cn2c(C)ncc12)C(C)C (stereo not drawn) [Example 491, N-ethyl-5-fluoro-2-[6-(1-{6-[4-(2-hydroxyethyl)piperazin-1-yl]-2-methylhexan-3-yl}azacyclobutan-3-yl)-3-methylimidazo[1,5-a]pyrazin-8-yl]-N-(isopropyl)benzamide]	130 nM	–
CCN(C(=O)c1cc(F)ccc1-c1nc(C2CN([C@H](CCCN3CCN(CCC#N)CC3)C(C)C)C2)cn2c(C)ncc12)C(C)C [Example 492]	270 nM	–
CCN(C(=O)c1cc(F)ccc1-c1cc(C2CN([C@H](CCCN3CCN(CCC#N)C(=O)C3)C(C)C)C2)cn2c(C)ncc12)C(C)C [Example 493]	5 nM	–
CCN(C(=O)c1cc(F)ccc1-c1cc(C2CN([C@H](CCCN3CCNC(=O)C3)C(C)C)C2)cn2c(C)ncc12)C(C)C [Example 494]	4.1 nM	–
CCN(C(=O)c1cc(F)ccc1-c1cc(C2CN([C@H](CCCN3CCN(CCOC)C(=O)C3)C(C)C)C2)cn2c(C)ncc12)C(C)C [Example 496]	3.8 nM	–
CCN(C(=O)c1cc(F)ccc1-c1cc(C2CN([C@H](CCCN3CCN[C@@H](CF)C3)C(C)C)C2)cn2c(C)ncc12)C(C)C [Example 500]	2.2 nM	–
CCN(C(=O)c1cc(F)ccc1-c1cc(C2CN([C@H](CCCN3CCN[C@H](CF)C3)C(C)C)C2)cn2c(C)ncc12)C(C)C [Example 501]	1.6 nM	–
COC[C@H]1CN(CCC[C@@H](C(C)C)N2CC(c3cc(-c4ccc(F)cc4C(=O)N(C(C)C)C(C)C)c4cnc(C)n4c3)C2)CCN1 [Example 504-1, 5-fluoro-2-(6-{1-[(3S)-6-[(3R)-3-(methoxymethyl)piperazin-1-yl]-2-methylhexan-3-yl]azacyclobutan-3-yl}-3-methylimidazo[1,5-a]pyridin-8-yl)-N,N-di(isopropyl)benzamide]	17 nM	–
COC[C@@H]1CN(CCC[C@@H](C(C)C)N2CC(c3cc(-c4ccc(F)cc4C(=O)N(C(C)C)C(C)C)c4cnc(C)n4c3)C2)CCN1 [Example 505-1]	22 nM	–
